Measured values as given in PubChem BioAssay (NCI).
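Five compound concentrations were applied to cells in 96-well plates for 48 hours; endpoints were derived by simple linear interpolation of the resulting dose-response curve. At the GI50, growth is halved. TGI is the concentration that stops growth completely.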

What was measured:
Experiment in all cases: NCI tumour cell line growth inhibition, 48 h
[1] = test system: SF-268 CNS
[2] = test system: NCI/ADR-RES ovarian
[3] = test system: MCF7 breast
[4] = test system: NCI-H522 lung
[5] = test system: EKVX NSCLC
[6] = test system: UACC-62 melanoma
[7] = test system: MDA-MB-231 breast
[8] = test system: CCRF-CEM leukemia
[9] = test system: HOP-62 NSCLC
[10] = test system: MDA-MB-435
[11] = test system: KM12 colon
[12] = test system: HCT-15 colon
[13] = test system: SK-OV-3 ovarian
[14] = test system: RXF 393 renal
[15] = test system: MOLT-4 leukemia
[16] = test system: SW-620 colon
[17] = test system: OVCAR-8 ovarian
[18] = test system: HCT-116 colon
[19] = test system: OVCAR-5 ovarian
[20] = test system: M14 melanoma
[21] = test system: SR leukemia
[22] = test system: COLO 205 colon
[23] = test system: NCI-H226 lung
[24] = test system: HCC-2998 colon
[25] = test system: IGROV1 ovarian
[26] = test system: LOX IMVI melanoma
[27] = test system: HS 578T breast
[28] = test system: SK-MEL-28 melanoma
[29] = test system: NCI-H23 lung
[30] = test system: NCI-H460 lung
[31] = test system: RPMI-8226 leukemia
[32] = test system: SNB-19 CNS
[33] = test system: SNB-75 CNS
[34] = test system: T-47D breast
[35] = test system: SF-539 CNS
[36] = test system: BT-549 breast
[37] = test system: UO-31 renal
[38] = test system: SK-MEL-5 melanoma
[39] = test system: DU-145 prostate
[40] = test system: A549 NSCLC
[41] = test system: 786-0 renal
[42] = test system: OVCAR-3 ovarian
[43] = test system: PC-3 prostate
[44] = test system: ACHN renal
[45] = test system: K-562 leukemia
[46] = test system: SF-295 CNS
[47] = test system: SK-MEL-2 melanoma
[48] = test system: HOP-92 NSCLC
[49] = test system: A498 renal
[50] = test system: HT29 colon
[51] = test system: TK-10 renal
[52] = test system: HL-60(TB) leukemia
[53] = test system: U251 CNS
[54] = test system: CAKI-1 renal
[55] = test system: OVCAR-4 ovarian
[56] = test system: SN12C renal

CCC1C[N+]2=C(c3cc(OC)c(OC)cc3CC2)c2c1cc1n2CCc2cc(OC)c(OC)cc2-1 (configuration not stated)
GI50 [1]: 3.49 µM
TGI [1]: 31.8 µM
GI50 [2]: 64.3 µM
TGI [2]: > 100 µM
GI50 [3]: 1.25 µM
TGI [3]: 13.3 µM
GI50 [4]: 1.81 µM
TGI [4]: 13.9 µM
GI50 [5]: 6.62 µM
TGI [5]: > 100 µM
GI50 [6]: 1.93 µM
TGI [6]: 6.03 µM
GI50 [7]: 2.27 µM
TGI [7]: 8.44 µM
GI50 [8]: 3.68 µM
TGI [8]: 42.4 µM
GI50 [9]: 3.51 µM
TGI [9]: 26.5 µM
GI50 [10]: 1.62 µM
TGI [10]: 6.09 µM
GI50 [11]: 1.5 µM
TGI [11]: 10.9 µM
GI50 [12]: 14 µM
TGI [12]: 34.7 µM
GI50 [13]: 5.01 µM
TGI [13]: 37.5 µM
GI50 [14]: 3.46 µM
TGI [14]: 15.5 µM
GI50 [15]: 3.97 µM
TGI [15]: 23.6 µM
GI50 [16]: 4.25 µM
TGI [16]: 16.8 µM
GI50 [17]: 2.58 µM
TGI [17]: 82.1 µM
GI50 [18]: 2.89 µM
TGI [18]: 13.1 µM
GI50 [19]: 12.1 µM
TGI [19]: > 100 µM
GI50 [20]: 3.66 µM
TGI [20]: 14.6 µM
GI50 [21]: 3.1 µM
TGI [21]: > 100 µM
GI50 [22]: 1.23 µM
TGI [22]: 3.71 µM
GI50 [23]: 7.49 µM
TGI [23]: 21.2 µM
GI50 [24]: 2.55 µM
TGI [24]: 12.9 µM
GI50 [25]: 5.62 µM
TGI [25]: 53.6 µM
GI50 [26]: 3.72 µM
TGI [26]: 23.2 µM
GI50 [27]: 4.1 µM
TGI [27]: > 100 µM
GI50 [28]: 1.93 µM
TGI [28]: 10.1 µM
GI50 [29]: 2.77 µM
TGI [29]: 18.7 µM
GI50 [30]: 2.82 µM
TGI [30]: 12.1 µM
GI50 [31]: 0.576 µM
TGI [31]: 15 µM
GI50 [32]: 2.75 µM
TGI [32]: 15.7 µM
GI50 [33]: 1.77 µM
TGI [33]: 7.48 µM
GI50 [34]: 0.746 µM
TGI [34]: 5.51 µM
GI50 [35]: 3.34 µM
TGI [35]: 14.9 µM
GI50 [36]: 2.69 µM
TGI [36]: 13.5 µM
GI50 [37]: 18.4 µM
TGI [37]: 46.8 µM
GI50 [38]: 1.26 µM
TGI [38]: 2.61 µM
GI50 [39]: 5.37 µM
TGI [39]: 36.8 µM
GI50 [40]: 11.8 µM
TGI [40]: > 100 µM
GI50 [41]: 11 µM
TGI [41]: 30.1 µM
GI50 [42]: 1 µM
TGI [42]: 10.8 µM
GI50 [43]: 2.5 µM
TGI [43]: 33.1 µM
GI50 [44]: 14.7 µM
TGI [44]: 30.1 µM
GI50 [45]: 1.95 µM
TGI [45]: 20.8 µM
GI50 [46]: 6.37 µM
TGI [46]: 27.7 µM
GI50 [47]: 2.67 µM
TGI [47]: 7.31 µM
GI50 [48]: 1.78 µM
TGI [48]: 6.08 µM
GI50 [49]: 7.36 µM
TGI [49]: 33 µM
GI50 [50]: 3.23 µM
TGI [50]: 20.3 µM
GI50 [51]: 6.84 µM
TGI [51]: 21.1 µM
GI50 [52]: 2.47 µM
TGI [52]: 10.1 µM
GI50 [53]: 2.25 µM
TGI [53]: 14.5 µM
GI50 [54]: 20.6 µM
TGI [54]: 65.7 µM
GI50 [55]: 1.14 µM
TGI [55]: 8.87 µM
GI50 [56]: 1.93 µM
TGI [56]: 11.8 µM
